What all share (assay type): cell-based
The target in experiment [1] is Amyloid-beta precursor protein (Homo sapiens) (UniProt P05067). Put plainly: Reduction in amyloid beta 40 content (unknown origin) expressed in HEK293 cells expressing APP K595N/M596L Swedish mutant at 20 uM after 24 hrs by ELISA. Background: ELISA stands for enzyme-linked immunosorbent assay.
For experiment [2] the target is unchanged. The experiment can be described thus: Reduction in amyloid beta 40 content (unknown origin) expressed in HEK293 cells expressing APP K595N/M596L Swedish mutant at 0.1 uM after 24 hrs by ELISA.
Experiment [3] shares this target. The experiment can be described thus: Reduction in amyloid beta 40 content (unknown origin) expressed in HEK293 cells expressing APP K595N/M596L Swedish mutant at 1 uM after 24 hrs by ELISA.
Experiment [4] has the same target. Put plainly: Reduction in amyloid beta 40 content (unknown origin) expressed in HEK293 cells expressing APP K595N/M596L Swedish mutant at 10 uM after 24 hrs by ELISA.

Active and inactive are the calls of the source. No cut-off for these calls is given here.

Amyloid-beta precursor protein (Homo sapiens), sequence (P05067 whole entry): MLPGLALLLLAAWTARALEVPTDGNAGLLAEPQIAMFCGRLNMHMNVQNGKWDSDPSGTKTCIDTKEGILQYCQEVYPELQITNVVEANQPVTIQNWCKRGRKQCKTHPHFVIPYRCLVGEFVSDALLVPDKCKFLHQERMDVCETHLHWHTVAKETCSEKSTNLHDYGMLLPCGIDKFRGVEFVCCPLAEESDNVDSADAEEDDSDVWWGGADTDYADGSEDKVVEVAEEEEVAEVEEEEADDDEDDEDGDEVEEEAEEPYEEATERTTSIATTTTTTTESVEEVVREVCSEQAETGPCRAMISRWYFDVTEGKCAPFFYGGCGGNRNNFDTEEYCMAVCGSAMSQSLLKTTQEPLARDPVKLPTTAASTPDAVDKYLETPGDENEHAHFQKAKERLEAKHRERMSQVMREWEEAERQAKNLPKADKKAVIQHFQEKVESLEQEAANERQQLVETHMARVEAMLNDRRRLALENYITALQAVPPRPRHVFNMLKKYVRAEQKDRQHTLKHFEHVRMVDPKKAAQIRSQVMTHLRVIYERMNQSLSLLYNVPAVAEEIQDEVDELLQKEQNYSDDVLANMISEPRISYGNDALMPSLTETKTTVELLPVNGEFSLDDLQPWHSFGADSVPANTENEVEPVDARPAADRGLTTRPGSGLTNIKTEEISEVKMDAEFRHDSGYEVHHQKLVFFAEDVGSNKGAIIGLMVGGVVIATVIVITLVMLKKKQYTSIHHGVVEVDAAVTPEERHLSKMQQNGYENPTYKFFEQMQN

`COc1ccc(Cl)cc1NC(=O)Oc1ccc(C[C@H]2C(=O)OC[C@@H]2Cc2ccc(OC)c(OC)c2)cc1OC`: in experiment [1], the inhibition (as a rule, how much of the control response was suppressed) stood at 42.4%.
Same read-out and setting: then `COc1ccc(C[C@H]2COC(=O)[C@@H]2Cc2ccc(OC(=O)NCc3ccccc3)c(OC)c2)cc1OC`, with 41.3%.
Compound `COc1ccc(C[C@H]2COC(=O)[C@@H]2Cc2ccc(OC(=O)Nc3cccc(F)c3)c(OC)c2)cc1OC` returned an inhibition in experiment [1] of 61%.
In the case of `COc1ccc(C[C@H]2COC(=O)[C@@H]2Cc2ccc(OC(=O)NC(C)C)c(OC)c2)cc1OC`, the inhibition in experiment [1] is 21.4%.
Same read-out and setting: the value for `COc1ccccc1NC(=O)Oc1ccc(C[C@H]2C(=O)OC[C@@H]2Cc2ccc(OC)c(OC)c2)cc1OC` was 61.7%; that for `COc1ccc(C[C@H]2COC(=O)[C@@H]2Cc2ccc(OC(=O)Nc3cccc(Cl)c3C)c(OC)c2)cc1OC` was 62.8%.
With `COc1cc(C[C@H]2C(=O)OC[C@@H]2Cc2ccc(OC)c(OC)c2)ccc1O`, the inhibition in experiment [1] came out at 44.6%. The inhibition entry in experiment [2] and in experiment [3] was “inactive” each time. The inhibition result in experiment [4] was “Active”.
The compound `CNC(=O)Oc1ccc(C[C@H]2C(=O)OC[C@@H]2Cc2ccc(OC)c(OC)c2)cc1OC` showed an inhibition in experiment [1] of 29.8%.
On the same count and under the same terms, the value for `COc1ccc(C[C@H]2COC(=O)[C@@H]2Cc2ccc(OC(=O)Nc3cccc([N+](=O)[O-])c3)c(OC)c2)cc1OC` was 63%; that for `COc1cccc(NC(=O)Oc2ccc(C[C@H]3C(=O)OC[C@@H]3Cc3ccc(OC)c(OC)c3)cc2OC)c1` was 52.8%.
On the same count and under the same terms, then `COc1ccc(C[C@H]2COC(=O)[C@@H]2Cc2ccc(OC(=O)Nc3ccccc3)c(OC)c2)cc1OC`, with 43.5%; and `CCCNC(=O)Oc1ccc(C[C@H]2C(=O)OC[C@@H]2Cc2ccc(OC)c(OC)c2)cc1OC`, with 20.3%.
The compound `CCN(CC)C(=O)Oc1ccc(C[C@H]2C(=O)OC[C@@H]2Cc2ccc(OC)c(OC)c2)cc1OC` had an inhibition in experiment [1] of 11.9%.
The same measure, in the same setting: the value for `COc1ccc(C[C@H]2COC(=O)[C@@H]2Cc2ccc(OC(=O)N[C@@H](C)c3ccccc3)c(OC)c2)cc1OC` was 70.8%; that for `COc1ccc(C[C@H]2COC(=O)[C@@H]2Cc2ccc(OC(=O)Nc3cccc(C#N)c3)c(OC)c2)cc1OC` was 56%.
Still for that read-out and setting: the value for `COc1ccc(C[C@H]2COC(=O)[C@@H]2Cc2ccc(OC(=O)Nc3cc(Cl)cc(Cl)c3)c(OC)c2)cc1OC` was 56%; that for `COc1ccc(C[C@H]2COC(=O)[C@@H]2Cc2ccc(OC(=O)NCCc3ccccc3)c(OC)c2)cc1OC` was 49%; that for `COc1ccc(C[C@H]2COC(=O)[C@@H]2Cc2ccc(OC(=O)Nc3cccc(C)c3)c(OC)c2)cc1OC` was 55%.
`COc1ccc(C[C@H]2COC(=O)[C@@H]2Cc2ccc(N3CCCCC3)c(OC)c2)cc1OC` returned an inhibition in experiment [1] of 26.2%.
Still for that read-out and setting: the value for `COc1ccc(C[C@H]2COC(=O)[C@@H]2Cc2ccc(OC(=O)N[C@H](C)c3ccccc3)c(OC)c2)cc1OC` was 45%.
On the same count and under the same terms, then `COc1ccc(C[C@H]2COC(=O)[C@@H]2Cc2ccc(OC(=O)NC3CCCCC3)c(OC)c2)cc1OC`, with 35.4%.
Regarding `COc1ccc(C[C@H]2COC(=O)[C@@H]2Cc2ccc(OC(=O)Nc3ccc(Cl)cc3)c(OC)c2)cc1OC`, the inhibition in experiment [1] amounted to 66.9%. Moreover, the inhibition result in experiment [2] was “inactive”. Moreover, the inhibition result in experiment [3] and in experiment [4] was “Active” each time.
For `COc1ccc(C[C@H]2COC(=O)[C@@H]2Cc2ccc(OC(=O)N(C)C)c(OC)c2)cc1OC`, in experiment [1], the inhibition amounted to 28.5%.
On the same count and under the same terms, the value for `CCNC(=O)Oc1ccc(C[C@H]2C(=O)OC[C@@H]2Cc2ccc(OC)c(OC)c2)cc1OC` was 36.3%.
With `COc1ccc(NC(=O)Oc2ccc(C[C@H]3C(=O)OC[C@@H]3Cc3ccc(OC)c(OC)c3)cc2OC)cc1`, the inhibition in experiment [1] was 52.9%.
Same read-out and setting: then `COc1ccc(C[C@H]2COC(=O)[C@@H]2Cc2ccc(OC(=O)Nc3ccccc3Cl)c(OC)c2)cc1OC`, with 58.3%.
For the compound `COc1ccc(C[C@H]2COC(=O)[C@@H]2Cc2ccc(OC(=O)Nc3cccc(Cl)c3)c(OC)c2)cc1OC`, in experiment [1], the inhibition was found to be 78.7%. In experiment [2], the inhibition result is “inactive”. Besides, the inhibition result in experiment [3] and in experiment [4] was “Active” throughout.
In the case of `COc1ccc(C[C@H]2COC(=O)[C@@H]2Cc2ccc(OC(=O)N(C)c3ccccc3)c(OC)c2)cc1OC`, the inhibition in experiment [1] was 30%.
Same read-out and setting: then `COc1ccc(C[C@H]2COC(=O)[C@@H]2Cc2ccc(OC(=O)Nc3ccc(F)c(Cl)c3)c(OC)c2)cc1OC`, with 60.5%.
The same measure, in the same setting: then `COc1ccc(C[C@H]2COC(=O)[C@@H]2Cc2ccc(OC(=O)N(C)c3cccc(Cl)c3)c(OC)c2)cc1OC`, with 41%; and `COc1ccc(C[C@H]2COC(=O)[C@@H]2Cc2ccc(OC(=O)Nc3ccc(C)c(Cl)c3)c(OC)c2)cc1OC`, with 53.7%.

Values taken from ChEMBL document CHEMBL3808394, “Synthesis and decreasing Aβ content evaluation of arctigenin-4-yl carbamate derivatives” (Bioorg Med Chem Lett, 2016).
